Here are results for 3 compounds from patent US6077822A, “Drug salts” (Dumex-Alpharma A/S, priority 1993, dated 2000).

For data set [1] the following is noted: increased gastric pH; cited from earlier work.
Data set [2] in a line: dissolution, paddle method USP XXII apparatus II. In kind it is physicochemical. To be noted: 900 ml 0.1 N HCl; tablet with 150 mg salt; 5-60 minutes; FIG. 1. How it is done: The paddle method is used in accordance with USP XXII, p. 1579, (apparatus II), with 900 ml 0.1 N HCl. […] Samples are taken after 5, 10, 20, 30 and 60 minutes and diluted.
The samples are analyzed spectrophotometrically at 345.9 nm in a Shimadzu 160 A photometer.

For data set [3] the following is noted: cited from earlier work.

`C[C@H]1c2cccc(O)c2C(=O)C2=C(O)[C@]3(O)C(=O)C(C(N)=O)=C(O)[C@@H](N(C)C)[C@@H]3[C@@H](O)[C@@H]21.O` [doxycyclin monohydrate]: the “effect of increased pH of the stomach on bioavailability / dissociation and absorption” value in data set [1] is “decreases the bioavailability”.
For “Doxycyclin Sucrose-octa-O-sulphonic Acid Salt [Example 2]”, the “release versus time compared with Vibramycin” value in data set [2] is on record as “delayed release characteristics are similar”.
On to `CCO.C[C@H]1c2cccc(O)c2C(=O)C2=C(O)[C@]3(O)C(=O)C(C(N)=O)=C(O)[C@@H](N(C)C)[C@@H]3[C@@H](O)[C@@H]21.C[C@H]1c2cccc(O)c2C(=O)C2=C(O)[C@]3(O)C(=O)C(C(N)=O)=C(O)[C@@H](N(C)C)[C@@H]3[C@@H](O)[C@@H]21.Cl.Cl.O` [doxycyclin hyclate, doxycyclin hydrochloride (hyclate)], for which, in data set [3] (24/373 patients), the “patients spontaneously reporting nausea and vomiting” value is recorded as 6.4%. The “patients reporting nausea and vomiting after questioning” value in data set [3] (35/113 patients) is recorded as 31%. Besides, in data set [3] (in vivo), the “frequency of nausea and vomiting relative to other antibiotics” value is 3 fold. Besides, in data set [1], the “effect of increased pH of the stomach on bioavailability / dissociation and absorption” value is reported as “independent of pH”.
